Results on 20 molecules are retold here after patent US20260365653A1, “IRREVERSIBLE MUTEGFR INHIBITORS” (Bayer Aktiengesellschaft, priority 2022, published 2026).

SMILES strings stand for the structures.

The target in assay [1] is T1, mutEGFR (D770_N771insSVD) (Homo sapiens, UniProt P00533, DUP768-770).
T1 construct: GST-EGFR #3 (SVD between D770 and N771); made in house; host or cells: Sf9 insect cells (baculovirus)
Briefly: Exon20-Mutant-EGFR (D770_N771insSVD) kinase assay (TR-FRET). The class given is biochemical. To be noted: mutEGFR (D770_N771insSVD) kinase assay IC50, Table 2a; D770_N771insSVD; 2 mM ATP. (TR-FRET usually uses a lanthanide donor and a delayed reading to cut background.)

Assay [2] concerns the target T2, mutEGFR (D770_N771insNPG, T790) (Homo sapiens, UniProt P00533, INS770NPG/T790M).
T2 construct: exact insNPG construct not described; in-house EGFR proteins were N-terminal GST fusions from baculovirus/insect cells (borders R669-A1210 given only for WT, insSVD, insASV)
Briefly: mutEGFR (D770_N771insNPG, T790) kinase assay. The class given is biochemical. As to conditions: Table 2a, D770_N771insNPG. The text has this: The different EGFR proteins used in the biochemical kinase activity inhibition assays were generated inhouse by expression in insect cells using Baculo Virus system and subsequent purification as described in the following paragraphs.
The cDNAs encoding the various protein sequences from human EGFR human (P00533) were optimized for expression in eukaryotic cells and synthesized by the GeneArt Technology at Life Technologies.

In the next assay the test system is BA/F3 (insSVD) cells. Kind of assay: Ba/F3-EGFR-insSVD cell survival assay (Cell Titer-Glo). The class given is cell-based. To be noted: Table 3a, cell survival, Cell Titer-Glo, with 10 ng/ml EGF, without IL-3. The protocol:
Cellular Data Description (WT, insSVD, insSVD T790M) 293T cells from ATCC were transfected with pBABEpuro expression constructs for WT EGFR or EGFR-insSVD, or EGFR-insSVD T790M, and pCL-Eco packaging vector using Fugene-6 transfection reagent from Promega. Plates were incubated at 37° C. for 48 h. Retrovirus was harvested by filtering the media supernatant through a 0.45 μm filter.
Ba/F3 cells purchased from DSMZ were grown in RPMI+10% FBS+10 ng/ml IL-3 and infected with filtered retroviral supernatant at a 1:2 dilution. Polybrene was added to a concentration of 8 μg/mL, plates were spun for 90 min, and incubated for 16 h at 37° C. 2 μg/mL puromycin was added to the infected cells 24 h after infection and cells were continually grown in the presence of puromycin and 10 ng/ml IL-3. Following stably expressing Ba/F3 cell lines were generated: Ba/F3-EGFR-WT, Ba/F3-EGFR-insSVD, Ba/F3-EGFR-insSVD T790M, (Ba/F3-vector-control).
For cell survival assays, Ba/F3 cells were grown to a density of 1-2 million cells per mL, spun down and resuspended in media without IL-3, and replated at a concentration of 200,000-500,000 cells per mL. The cells ectopically expressing WT EGFR, EGFR-insSVD, or EGFR-insSVD T790M were plated with 10 ng/ml Millipore Culture grade EGF. The cells ectopically expressing pBABEpuro empty vector were plated with 10 ng/mL IL-3.
2 days later, cells were plated in 50 µL in a 384 well plate at a concentration of 4000 cells per well for cells assayed in the absence of IL-3 and 2000 cells per well for cells assayed in the presence of IL-3. 100 nL of compound was added to each well using a 100 nL pin head, and plates were incubated at 37° C. for 48 h.
Cell viability was measured by adding 20 μL of Cell Titer-Glo Luminescent Cell Viability Reagent diluted 1:3 in PBS. Plates were sealed with Perkin Elmer Top-Seal, inverted several times to mix, and immediately centrifuged at 1000 rpm for 2 min. Plates were incubated in low light conditions for 8-10 min and luminescence was measured.
(In general: In ATP-based viability assays light output follows the ATP content of the culture.)

T2 sequence (P00533 with tags, fused parts or gaps INS770NPG/T790M limits assumed): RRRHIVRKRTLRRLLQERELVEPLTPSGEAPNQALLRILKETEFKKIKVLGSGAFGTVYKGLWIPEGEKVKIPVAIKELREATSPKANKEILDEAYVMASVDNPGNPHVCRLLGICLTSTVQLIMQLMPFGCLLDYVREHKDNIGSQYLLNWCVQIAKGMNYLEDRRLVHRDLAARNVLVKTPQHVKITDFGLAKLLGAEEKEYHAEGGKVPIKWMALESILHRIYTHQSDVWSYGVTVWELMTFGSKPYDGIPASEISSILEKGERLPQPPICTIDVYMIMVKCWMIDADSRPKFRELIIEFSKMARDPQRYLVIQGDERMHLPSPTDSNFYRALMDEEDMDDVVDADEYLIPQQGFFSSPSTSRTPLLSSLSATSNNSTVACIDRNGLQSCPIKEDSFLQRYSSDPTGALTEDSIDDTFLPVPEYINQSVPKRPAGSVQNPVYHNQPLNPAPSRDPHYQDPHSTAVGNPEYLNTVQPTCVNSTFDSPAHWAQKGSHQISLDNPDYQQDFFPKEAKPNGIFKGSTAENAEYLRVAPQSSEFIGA
T1 sequence (P00533 with tags, fused parts or gaps DUP768-770): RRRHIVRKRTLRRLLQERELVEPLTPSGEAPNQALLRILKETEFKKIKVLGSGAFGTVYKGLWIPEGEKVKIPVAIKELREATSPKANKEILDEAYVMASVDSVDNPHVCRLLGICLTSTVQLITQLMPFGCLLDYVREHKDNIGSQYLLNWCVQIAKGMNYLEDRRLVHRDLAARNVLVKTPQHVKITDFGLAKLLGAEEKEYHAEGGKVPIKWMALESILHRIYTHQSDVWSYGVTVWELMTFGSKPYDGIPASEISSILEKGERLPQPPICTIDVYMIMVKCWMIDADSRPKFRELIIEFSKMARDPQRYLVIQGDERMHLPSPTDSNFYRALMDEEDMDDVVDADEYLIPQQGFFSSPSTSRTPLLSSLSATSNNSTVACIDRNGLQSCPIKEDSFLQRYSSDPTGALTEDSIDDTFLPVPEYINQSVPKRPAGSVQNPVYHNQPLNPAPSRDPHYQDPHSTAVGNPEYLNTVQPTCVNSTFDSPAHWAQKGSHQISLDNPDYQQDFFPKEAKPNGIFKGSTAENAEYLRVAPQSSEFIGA

With `C=CC(=O)N1Cc2c(-c3ccncc3)c(-c3ccc(F)cc3)nn2C(C)(C)C1` [Example 207, 1-[2-(4-fluorophenyl)-7,7-dimethyl-3-(pyridin-4-yl)-6,7-dihydropyrazolo[1,5-a]pyrazin-5(4H)-yl]prop-2-en-1-one], the IC50 in assay [1] came out at 0.644 nM; in assay [2] it was 2.22 nM; with BA/F3 (insSVD) cells (Mus musculus, BaF3, 48 h) it was 24.6 nM.
On to `COc1ccc(-c2nn3c(c2-c2ccnc4[nH]cc(C)c24)CN(C(=O)/C=C/CN(C)C)CC3)cc1` [Example 60, (2E)-4-(dimethylamino)-1-[2-(4-methoxyphenyl)-3-(3-methyl-1H-pyrrolo[2,3-b]pyridin-4-yl)-6,7-dihydropyrazolo[1,5-a]pyrazin-5(4H)-yl]but-2-en-1-one], for which the IC50 stood at 939 nM in assay [1]; 1410 nM in assay [2]; 647 nM with BA/F3 (insSVD) cells (Mus musculus, BaF3, 48 h).
Consider `C=CC(=O)N1CCn2nc(-c3ccc(OC)cc3)c(-c3ccncc3)c2C1C` (racemic) [Example 241, 1-[(RS)-2-(4-methoxyphenyl)-4-methyl-3-(pyridin-4-yl)-6,7-dihydropyrazolo[1,5-a]pyrazin-5(4H)-yl]prop-2-en-1-one], for which the IC50 in assay [1] worked out at 3.88 nM; in assay [2], 12.3 nM; in the assay with BA/F3 (insSVD) cells (Mus musculus, BaF3, 48 h), 77.1 nM.
Turning to `C=CC(=O)N1Cc2c(-c3ccncc3)c(-c3ccc(Cl)cc3F)nn2CC1C` (stereo not shown) [Example 227, 1-(2-(4-chloro-2-fluorophenyl)-6-methyl-3-(pyridin-4-yl)-6,7-dihydropyrazolo[1,5-a]pyrazin-5(4H)-yl) prop-2-en-1-one], the IC50 in assay [1] stood at 0.12 nM; in assay [2], 0.394 nM; with BA/F3 (insSVD) cells (Mus musculus, BaF3, 48 h) it was 5.94 nM.
In the case of `C=CC(=O)N1CCn2nc(-c3ccc4[nH]ccc4c3)c(-c3ccncc3)c2C1` [Example 193, 1-[2-(1H-indol-5-yl)-3-(pyridin-4-yl)-6,7-dihydropyrazolo[1,5-a]pyrazin-5(4H)-yl]prop-2-en-1-one], the IC50 in assay [1] is 0.831 nM; in assay [2], 2.85 nM; with BA/F3 (insSVD) cells (Mus musculus, BaF3, 48 h) it was 45.6 nM.
The matching figures for `C#Cc1ccc(-c2nn3c(c2-c2ccncc2)CN(C(=O)/C=C/CN(C)C)CC3)cc1` [Example 146, (2E)-4-(dimethylamino)-1-[2-(4-ethynylphenyl)-3-(pyridin-4-yl)-6,7-dihydropyrazolo[1,5-a]pyrazin-5(4H)-yl]but-2-en-1-one]: 680 nM, 1170 nM and 4680 nM.
As to `C=CC(=O)N1CCn2nc(-c3ccc(OCC)cc3)c(-c3ccncc3)c2C1` [Example 130, 1-[2-(4-ethoxyphenyl)-3-(pyridin-4-yl)-6,7-dihydropyrazolo[1,5-a]pyrazin-5(4H)-yl]prop-2-en-1-one], the IC50 in assay [1] was 6.69 nM; in assay [2] it was 45.5 nM; in the assay with BA/F3 (insSVD) cells (Mus musculus, BaF3, 48 h) it was 980 nM.
As for `C=CC(=O)N1CCn2nc(-c3cccc(C(F)(F)F)c3)c(-c3ccnc4[nH]cc(C)c34)c2C1` [Example 178, 1-(3-(3-methyl-1H-pyrrolo[2,3-b]pyridin-4-yl)-2-(3-(trifluoromethyl)phenyl)-6,7-dihydropyrazolo[1,5-a]pyrazin-5(4H)-yl) prop-2-en-1-one], the IC50 stood at 207 nM in assay [1] and 58.6 nM in the assay on BA/F3 (insSVD) cells (Mus musculus, BaF3, 48 h).
In the case of `C=CC(=O)N1C(C)c2c(-c3ccncc3)c(-c3ccc(Cl)cc3F)nn2C[C@H]1C` (single isomer, unassigned; isomer 1) [Example 290], the IC50 is 1180 nM in assay [1] and 3430 nM with BA/F3 (insSVD) cells (48 h).
Regarding `CCNC/C=C/C(=O)N1CCn2nc(-c3ccc(F)cc3)c(-c3ccncc3)c2C1` [Example 81, (2E)-4-(ethylamino)-1-[2-(4-fluorophenyl)-3-(pyridin-4-yl)-6,7-dihydropyrazolo[1,5-a]pyrazin-5(4H)-yl]but-2-en-1-one], the IC50 in assay [1] is 4.15 nM; in the assay with BA/F3 (insSVD) cells (Mus musculus, BaF3, 48 h), 134 nM.
`C=CC(=O)N1C(C)c2c(-c3ccncc3)c(-c3ccc(Cl)cc3F)nn2C[C@H]1C` (single isomer, unassigned; isomer 2) [Example 291]: the values for the IC50 (in assay [1]; with BA/F3 (insSVD) cells (48 h)) were 1.11 nM and 53 nM, respectively.
Regarding `C=CC(=O)N1CCn2nc(-c3ccc4cc(F)sc4c3)c(-c3ccnc4[nH]cc(C)c34)c2C1` [Example 181, 1-[2-(2-fluoro-1-benzothiophen-6-yl)-3-(3-methyl-1H-pyrrolo[2,3-b]pyridin-4-yl)-6,7-dihydropyrazolo[1,5-a]pyrazin-5(4H)-yl]prop-2-en-1-one], the half-maximal inhibitory concentration (IC50) in assay [1] was found to be 59.6 nM; with BA/F3 (insSVD) cells (Mus musculus, BaF3, 48 h) it was 64.1 nM.
For `CNC/C=C/C(=O)N1CCn2nc(-c3ccc(F)cc3)c(-c3ccncc3)c2C1` [Example 80, (2E)-1-[2-(4-fluorophenyl)-3-(pyridin-4-yl)-6,7-dihydropyrazolo[1,5-a]pyrazin-5(4H)-yl]-4-(methylamino)but-2-en-1-one], the IC50 in assay [1] was 19.4 nM; with BA/F3 (insSVD) cells (Mus musculus, BaF3, 48 h), 1370 nM.
`CN(C/C=C/C(=O)N1CCn2nc(-c3ccc(Cl)cc3)c(-c3ccncc3)c2C1)CCO` [Example 170, (2E)-1-[2-(4-chlorophenyl)-3-(pyridin-4-yl)-6,7-dihydropyrazolo[1,5-a]pyrazin-5(4H)-yl]-4-[(2-hydroxyethyl)(methyl)amino]but-2-en-1-one]: the IC50 in assay [1] is 0.38 nM; with BA/F3 (insSVD) cells (Mus musculus, BaF3, 48 h), 190 nM.
Turning to `Cc1c[nH]c2nccc(-c3c(-c4cccc(C(F)(F)F)c4)nn4c3CN(C(=O)/C=C/CN(C)C)CC4)c12` [Example 185, (E)-4-(dimethylamino)-1-(3-(3-methyl-1H-pyrrolo[2,3-b]pyridin-4-yl)-2-(3-(trifluoromethyl)phenyl)-6,7-dihydropyrazolo[1,5-a]pyrazin-5(4H)-yl) but-2-en-1-one], the IC50 in assay [1] was 233 nM; in the assay on BA/F3 (insSVD) cells (Mus musculus, BaF3, 48 h) it was 68.8 nM.
Molecule `Cc1c[nH]c2nccc(-c3c(-c4ccc5cc(F)sc5c4)nn4c3CN(C(=O)/C=C/CN(C)C)CC4)c12` [Example 187, (2E)-4-(dimethylamino)-1-[2-(2-fluoro-1-benzothiophen-6-yl)-3-(3-methyl-1H-pyrrolo[2,3-b]pyridin-4-yl)-6,7-dihydropyrazolo[1,5-a]pyrazin-5(4H)-yl]but-2-en-1-one] displayed a concentration for half-maximal inhibition (IC50) in assay [1] of 30 nM.
Turning to `CN1CCN(C/C=C/C(=O)N2CCn3nc(-c4ccc(F)cc4)c(-c4ccncc4)c3C2)CC1` [Example 82, (2E)-1-[2-(4-fluorophenyl)-3-(pyridin-4-yl)-6,7-dihydropyrazolo[1,5-a]pyrazin-5(4H)-yl]-4-(4-methylpiperazin-1-yl) but-2-en-1-one], the IC50 was found to be 29.6 nM in assay [1] and 739 nM in the assay on BA/F3 (insSVD) cells (Mus musculus, BaF3, 48 h).
With `C=CC(=O)N1CCn2nc(-c3cccc(Cl)c3F)c(-c3ccnc4[nH]cc(C)c34)c2C1` [Example 176, 1-[2-(3-chloro-2-fluorophenyl)-3-(3-methyl-1H-pyrrolo[2,3-b]pyridin-4-yl)-6,7-dihydropyrazolo[1,5-a]pyrazin-5(4H)-yl]prop-2-en-1-one], the IC50 came out at 166 nM in assay [1] and 62.7 nM in the assay on BA/F3 (insSVD) cells (Mus musculus, BaF3, 48 h).
In the case of `C=CC(=O)N1Cc2c(-c3ccncc3)c(-c3ccc(C(F)(F)F)cc3F)nn2C[C@H]1C` [Example 125, 1-[(6R)-2-[2-fluoro-4-(trifluoromethyl)phenyl]-6-methyl-3-(pyridin-4-yl)-6,7-dihydropyrazolo[1,5-a]pyrazin-5(4H)-yl]prop-2-en-1-one], the IC50 in assay [1] is 1.12 nM; in the assay with BA/F3 (insSVD) cells (Mus musculus, BaF3, 48 h), 45.5 nM.
For the molecule `C=CC(=O)N1CCn2nc(-c3cccc(CO)c3)c(-c3ccncc3)c2C1` [Example 121, 1-{2-[3-(hydroxymethyl)phenyl]-3-(pyridin-4-yl)-6,7-dihydropyrazolo[1,5-a]pyrazin-5(4H)-yl}prop-2-en-1-one], the IC50 in assay [1] was 1.88 nM; in the assay with BA/F3 (insSVD) cells (Mus musculus, BaF3, 48 h) it was 213 nM.

Usually IC50 stands for the concentration that inhibits the measured activity by half. A high value points to a need for much substance.
